Literature values as cited in patent US20080206348A1, “Cilostazol-Containing Pharmaceutical Composition Based On Particles Of Less Than 50 Micrometers” (priority 2004, published 2008).

Solubility in water: practically insoluble
Compound: O=C1CCc2cc(OCCCCc3nnnn3C3CCCCC3)ccc2N1 [Cilostazol]
